Measurements published in article PMC7910394, “Design of PSMA ligands with modifications at the inhibitor part: an approach to reduce the salivary gland uptake of radiolabeled PSMA inhibitors?” (EJNMMI Radiopharmacy and Chemistry, 2021).
Where two headings read alike, the source gives them in different places.

Key:
[1] = test system: LNCaP tumor xenograft-bearing CB17-SCID mice; format: in vivo, mouse
Method: All animal experiments were conducted in accordance with general animal welfare regulations in Germany (German animal protection act, as amended on 18.05.2018, Art. 141 G v. 29.3.2017 I 626, approval no. 55.2–1-54-2532-71-13) and the institutional guidelines for the care and use of animals. To establish tumor xenografts, LNCaP cells (approx. 10^7 cells) were suspended in 200 μL of a 1/1 mixture (v/v) of DMEM F-12 and Matrigel (BD Biosciences, Heidelberg, Germany) and inoculated subcutaneously onto the right shoulder of 6–8 weeks old CB17-SCID mice (Charles River Laboratories, Sulzfeld, Germany). Mice were used for experiments when tumor size reached 5–10 mm in diameter (3–6 weeks after inoculation).
(§1) Approximately 2–10 MBq (0.20 nmol) of the ^177Lu-labeled PSMA inhibitors were injected into the tail vein of LNCaP tumor xenograft-bearing male CB17-SCID mice (n = 3 to 5). They were sacrificed by CO2 asphyxiation and cervical dislocation either 1 h or 24 h post injection (p.i.) (n = 3 for [^177Lu]Lu-5, -6 & -7 (proinhibitor compounds I-III), n = 4 for [^177Lu]Lu-10 (alkyne), n = 5 for [^177Lu]Lu-3 (carbamate I) and n = 5 for [^177Lu]Lu-11 (tetrazole)). Selected organs were removed, weighed and organ activities measured in a γ-counter.
as §1, with “2 - 10” for “2–10”, “(alkyne) and” for “(alkyne),”

[2] = molecular target: T1, PSMA (Homo sapiens, UniProt Q04609); experiment: Competitive binding assay (IC50) on LNCaP cells with ([125I]I-BA)KuE as radioligand; conditions: ([125I]I-BA)KuE 0.2 nM, HBSS (1% BSA), 4 °C, 1 h
T1 construct: host or cells: LNCaP human prostate cancer cells
T1 sequence (Q04609 whole entry): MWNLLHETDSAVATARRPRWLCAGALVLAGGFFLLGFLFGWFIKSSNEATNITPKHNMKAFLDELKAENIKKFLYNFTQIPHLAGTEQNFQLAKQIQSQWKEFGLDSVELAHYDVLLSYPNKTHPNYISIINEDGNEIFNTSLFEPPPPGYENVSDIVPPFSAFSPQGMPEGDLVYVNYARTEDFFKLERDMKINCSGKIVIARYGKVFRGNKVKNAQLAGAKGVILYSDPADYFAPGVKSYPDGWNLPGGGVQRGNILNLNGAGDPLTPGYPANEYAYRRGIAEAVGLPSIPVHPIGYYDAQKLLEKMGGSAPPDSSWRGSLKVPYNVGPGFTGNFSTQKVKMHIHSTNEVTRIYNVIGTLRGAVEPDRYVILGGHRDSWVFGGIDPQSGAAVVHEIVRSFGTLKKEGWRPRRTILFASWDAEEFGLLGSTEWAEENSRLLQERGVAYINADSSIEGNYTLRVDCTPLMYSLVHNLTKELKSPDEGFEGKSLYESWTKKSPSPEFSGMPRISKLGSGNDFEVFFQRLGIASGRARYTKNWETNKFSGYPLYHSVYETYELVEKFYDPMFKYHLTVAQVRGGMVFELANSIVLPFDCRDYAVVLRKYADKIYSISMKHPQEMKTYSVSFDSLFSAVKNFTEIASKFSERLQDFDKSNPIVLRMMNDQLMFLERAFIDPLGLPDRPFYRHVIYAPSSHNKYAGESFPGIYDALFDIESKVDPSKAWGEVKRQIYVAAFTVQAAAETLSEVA
Method: PSMA-positive LNCaP cells (300265; Cell Lines Service, Eppelheim, Germany) were cultivated in Dulbecco’s modified Eagle medium/Nutrition Mixture F-12 with GlutaMAX (1/1, DMEM-F12, Thermo Fisher Scientific, Darmstadt, Germany) supplemented with 10% fetal bovine serum (Merck KGaA, Darmstadt, Germany) and kept at 37 °C in a humidified 5% CO2 atmosphere. One day (24 ± 2 h) prior to all in vitro experiments, the cultivated LNCaP cells were harvested using a mixture of trypsin/ethylenediamine-tetraacetic acid (0.05%/0.02%) in PBS (Thermo Fisher Scientific, Darmstadt, Germany) and centrifuged at 1300 rpm (ca. 190×g) for 3 min at room temperature (Heraeus Megafuge 16, Thermo Fisher Scientific, Darmstadt, Germany). After centrifugation, the supernatant was disposed and the cell pellet was resuspended in culture medium. Cells were counted with a Neubauer hemocytometer (Paul Marienfeld GmbH & Co. KG, Lauda-Königshofen, Germany) and seeded in 24-well plates.
Detailed information on affinity and internalization experiments is provided in the supporting information. […] IC50 values of (^natI-BA)KuE were determined on the same day for monitoring assay performance and to identify abnormal deviations in uptake and/or affinity. […] Data were corrected for non-specific binding and normalized to the specific internalization observed for the radioiodinated reference compound (n = 3).
The culture medium was removed and the cells were washed with 500 µL of Hank’s balanced salt solution (HBSS) (Merck KGaA, Darmstadt, Germany), containing 1% bovine serum albumin (BSA) (Merck KGaA, Darmstadt, Germany). Afterwards, 200 µL of HBSS (1% BSA) were added to each well and equilibrated on ice (4 °C) for 15 min. […] Experiments were carried out in triplicates for each concentration. The final concentrations of unlabeled ligand ranged from 10^-11 - 10^-5 M and the final radioligand concentration was 0.2 nM in all binding assays. The cells were incubated for one hour at 4 °C. Incubation was terminated by removal of the incubation medium. The cells were washed with 250 µL of HBSS (1% BSA) and the wash medium was combined with the respective supernatant. This fraction represents the amount of free radioligand. The cells were lysed by addition of 250 µL of 1 M aqueous NaOH. The lysate of each well was transferred to the respective vial as well as 250 µL of 1 M NaOH used for rinsing the well. Quantification of the amount of free and bound activity was performed in a γ-counter. The corresponding IC50 values were calculated using the GraphPad PRISM7 software.

CC(C)(C)[Si](F)(c1ccc(C(=O)NC[C@@H](NC(=O)CN2CCN(CC(=O)[O-])CCN(CC(=O)[O-])CCN(CC(=O)[O-])CC2)C(=O)N[C@H](CCCCNC(=O)CCC(=O)NCCC[C@@H](NC(=O)CC[C@H](NC(=O)N[C@@H](CCc2nnn[nH]2)C(=O)O)C(=O)O)C(=O)O)C(=O)O)cc1)C(C)(C)C.[Lu+3] [^natLu/[^177Lu]Lu-11]
Biodistribution Adrenals ([1]; 1 h p.i.): 0.61 ± 0.42 % ID/g | Biodistribution Blood ([1]; 1 h p.i.): 1.09 ± 0.30 % ID/g | Biodistribution Bone ([1]; 1 h p.i.): 0.47 ± 0.44 % ID/g | Biodistribution Heart ([1]; 1 h p.i.): 0.41 ± 0.04 % ID/g | Biodistribution Intestine ([1]; 1 h p.i.): 0.67 ± 0.21 % ID/g | Biodistribution Kidneys ([1]; 1 h p.i.): 33.2 ± 3.8 % ID/g | Biodistribution Liver ([1]; 1 h p.i.): 0.74 ± 0.17 % ID/g | Biodistribution Lung ([1]; 1 h p.i.): 1.23 ± 0.27 % ID/g | Biodistribution Muscle ([1]; 1 h p.i.): 0.15 ± 0.03 % ID/g | Biodistribution Pancreas ([1]; 1 h p.i.): 0.33 ± 0.11 % ID/g | Biodistribution Parotid gland ([1]; 1 h p.i.): 0.56 ± 0.08 % ID/g | Biodistribution Spleen ([1]; 1 h p.i.): 1.04 ± 0.15 % ID/g | Biodistribution Stomach ([1]; 1 h p.i.): 1.55 ± 1.67 % ID/g | Biodistribution Submandibular gland ([1]; 1 h p.i.): 0.40 ± 0.05 % ID/g | Biodistribution Tumor ([1]; 1 h p.i.): 3.40 ± 0.63 % ID/g | Ratio Tumor-to-blood ([1]; 1 h p.i.): 3.46 ± 1.62 | Ratio Tumor-to-kidney ([1]; 1 h p.i.): 0.10 ± 0.03 | Ratio Tumor-to-liver ([1]; 1 h p.i.): 5.00 ± 2.11 | Ratio Tumor-to-muscle ([1]; 1 h p.i.): 24.9 ± 10.2 | Ratio Tumor-to-parotid gland ([1]; 1 h p.i.): 6.20 ± 1.74 | Ratio Tumor-to-submandibular gland ([1]; 1 h p.i.): 8.74 ± 2.52 | Biodistribution Adrenals ([1]; 24 h p.i.): 0.17 ± 0.19 % ID/g | Biodistribution Bone ([1]; 24 h p.i.): 0.18 ± 0.04 % ID/g | Biodistribution Heart ([1]; 24 h p.i.): 0.02 ± 0.00 % ID/g | Biodistribution Intestine ([1]; 24 h p.i.): 0.52 ± 0.68 % ID/g | Biodistribution Kidneys ([1]; 24 h p.i.): 3.23 ± 0.77 % ID/g | Biodistribution Liver ([1]; 24 h p.i.): 0.18 ± 0.04 % ID/g | Biodistribution Lung ([1]; 24 h p.i.): 0.05 ± 0.02 % ID/g | Biodistribution Muscle ([1]; 24 h p.i.): 0.02 ± 0.01 % ID/g | Biodistribution Pancreas ([1]; 24 h p.i.): 0.02 ± 0.00 % ID/g | Biodistribution Parotid gland ([1]; 24 h p.i.): 0.06 ± 0.02 % ID/g | Biodistribution Spleen ([1]; 24 h p.i.): 0.11 ± 0.03 % ID/g | Biodistribution Stomach ([1]; 24 h p.i.): 0.12 ± 0.11 % ID/g | Biodistribution Submandibular gland ([1]; 24 h p.i.): 0.04 ± 0.01 % ID/g | Biodistribution Tumor ([1]; 24 h p.i.): 0.68 ± 0.16 % ID/g | Ratio Tumor-to-blood ([1]; 24 h p.i.): 227 ± 50 | Ratio Tumor-to-kidney ([1]; 24 h p.i.): 0.22 ± 0.06 | Ratio Tumor-to-liver ([1]; 24 h p.i.): 3.74 ± 0.50 | Ratio Tumor-to-muscle ([1]; 24 h p.i.): 55.9 ± 24.3 | Ratio Tumor-to-parotid gland ([1]; 24 h p.i.): 12.2 ± 1.7 | Ratio Tumor-to-submandibular gland ([1]; 24 h p.i.): 16.9 ± 2.2 | factor by which tumor-to-submandibular gland and tumor-to-parotid gland ratios are lower than for [177Lu]Lu-1 ([1]; 24 h p.i.): 8 | IC50 [2]: 16.4 ± 3.8 nM
